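Assay format: 96-well plates, 48-hour exposure. Abbreviation: GI50, concentration required for 50% inhibition of growth. TGI denotes the concentration required for complete inhibition of growth.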
Tests used:
Experiment in all cases: NCI tumour cell line growth inhibition, 48 h
[1] = tested on: 786-0 renal
[2] = tested on: MOLT-4 leukemia
[3] = tested on: T-47D breast
[4] = tested on: NCI-H522 lung
[5] = tested on: KM12 colon
[6] = tested on: SF-539 CNS
[7] = tested on: COLO 205 colon
[8] = tested on: ACHN renal
[9] = tested on: HCT-15 colon
[10] = tested on: SNB-75 CNS
[11] = tested on: MCF7 breast
[12] = tested on: SK-MEL-2 melanoma
[13] = tested on: SF-268 CNS
[14] = tested on: UACC-62 melanoma
[15] = tested on: OVCAR-3 ovarian
[16] = tested on: K-562 leukemia
[17] = tested on: CAKI-1 renal
[18] = tested on: OVCAR-5 ovarian
[19] = tested on: PC-3 prostate
[20] = tested on: NCI-H226 lung
[21] = tested on: NCI-H23 lung
[22] = tested on: HOP-62 NSCLC
[23] = tested on: LOX IMVI melanoma
[24] = tested on: HT29 colon
[25] = tested on: SF-295 CNS
[26] = tested on: BT-549 breast
[27] = tested on: A498 renal
[28] = tested on: HCT-116 colon
[29] = tested on: CCRF-CEM leukemia
[30] = tested on: IGROV1 ovarian
[31] = tested on: RXF 393 renal
[32] = tested on: MDA-MB-231 breast
[33] = tested on: A549 NSCLC
[34] = tested on: NCI-H460 lung
[35] = tested on: OVCAR-4 ovarian
[36] = tested on: SNB-19 CNS
[37] = tested on: SW-620 colon
[38] = tested on: NCI/ADR-RES ovarian
[39] = tested on: DU-145 prostate
[40] = tested on: MALME-3M melanoma
[41] = tested on: SK-MEL-28 melanoma
[42] = tested on: TK-10 renal
[43] = tested on: OVCAR-8 ovarian
[44] = tested on: M14 melanoma
[45] = tested on: UACC-257 melanoma
[46] = tested on: SK-OV-3 ovarian
[47] = tested on: EKVX NSCLC
[48] = tested on: SK-MEL-5 melanoma
[49] = tested on: HCC-2998 colon
[50] = tested on: UO-31 renal
[51] = tested on: U251 CNS
[52] = tested on: MDA-MB-435

## C(#Cc1ccccc1C#Cc1cccs1)c1cccs1
[1]
  GI50: 24.7 µM
  TGI: > 100 µM
[2]
  GI50: 25.8 µM
  TGI: 80.1 µM
[3]
  GI50: 30.2 µM
  TGI: > 100 µM
[4]
  GI50: 34.2 µM
  TGI: > 100 µM
[5]
  GI50: 29.5 µM
  TGI: > 100 µM
[6]
  GI50: 71.5 µM
  TGI: > 100 µM
[7]
  GI50: 36.4 µM
  TGI: > 100 µM
[8]
  GI50: 78 µM
  TGI: > 100 µM
[9]
  GI50: 24.6 µM
  TGI: > 100 µM
[10]
  GI50: > 100 µM
  TGI: > 100 µM
[11]
  GI50: 43.3 µM
  TGI: > 100 µM
[12]
  GI50: 41.7 µM
  TGI: > 100 µM
[13]
  GI50: > 100 µM
  TGI: > 100 µM
[14]
  GI50: 43.4 µM
  TGI: > 100 µM
[15]
  GI50: 57.1 µM
  TGI: > 100 µM
[16]
  GI50: 30.2 µM
  TGI: > 100 µM
[17]
  GI50: 43.2 µM
  TGI: > 100 µM
[18]
  GI50: 25.6 µM
  TGI: 83.2 µM
[19]
  GI50: 25.4 µM
  TGI: > 100 µM
[20]
  GI50: 39.2 µM
  TGI: > 100 µM
[21]
  GI50: 51.6 µM
  TGI: > 100 µM
[22]
  GI50: 77.3 µM
  TGI: > 100 µM
[23]
  GI50: 23.7 µM
  TGI: 53.8 µM
[24]
  GI50: 23.5 µM
  TGI: > 100 µM
[25]
  GI50: 30.6 µM
  TGI: > 100 µM
[26]
  GI50: > 100 µM
  TGI: > 100 µM
[27]
  GI50: 22 µM
  TGI: 81.4 µM
[28]
  GI50: 21.8 µM
  TGI: > 100 µM
[29]
  GI50: 31.9 µM
  TGI: > 100 µM
[30]
  GI50: > 100 µM
  TGI: > 100 µM
[31]
  GI50: 23.9 µM
  TGI: > 100 µM
[32]
  GI50: 23.4 µM
  TGI: 82.1 µM
[33]
  GI50: 89.9 µM
  TGI: > 100 µM
[34]
  GI50: 47.4 µM
  TGI: > 100 µM
[35]
  GI50: 83.8 µM
  TGI: > 100 µM
[36]
  GI50: > 100 µM
  TGI: > 100 µM
[37]
  GI50: 42 µM
  TGI: > 100 µM
[38]
  GI50: 25.2 µM
  TGI: > 100 µM
[39]
  GI50: > 100 µM
  TGI: > 100 µM
[40]
  GI50: 56.9 µM
  TGI: > 100 µM
[41]
  GI50: > 100 µM
  TGI: > 100 µM
[42]
  GI50: 27.7 µM
  TGI: > 100 µM
[43]
  GI50: > 100 µM
  TGI: > 100 µM
[44]
  GI50: 32.9 µM
  TGI: > 100 µM
[45]
  GI50: > 100 µM
  TGI: > 100 µM
[46]
  GI50: 33.9 µM
  TGI: > 100 µM
[47]
  GI50: 73.1 µM
  TGI: > 100 µM
[48]
  GI50: 23.6 µM
  TGI: > 100 µM
[49]
  GI50: 24 µM
  TGI: 65.2 µM
[50]
  GI50: 35.8 µM
  TGI: > 100 µM
[51]
  GI50: 66.8 µM
  TGI: > 100 µM
[52]
  GI50: 37.2 µM
  TGI: > 100 µM

From PubChem BioAssay (NCI)
